Measurements as given in patent publication US20140297199A1, “DRUG SCREENING METHOD AND USES THEREOF” (COLD SPRING HARBOR LABORATORY, priority 2011, published 2014).
Entries after “also recorded” stand apart in the source; their conditions may differ.

System: c-fos-GFP expression in the mouse brain
Assay: c-fos-GFP pharmacomaps of three antipsychotics at a moderate dosage (Example 9)
Details: 5 mouse brains per drug; for brain regions activated (pharmacomap): haloperidol 0.25 mg/kg, risperidone 1.0 mg/kg, aripiprazole 1.0 mg/kg, vs saline; for c-fos-GFP activation, Anterior cingulate cortex (ACAd) / c-fos-GFP activation, Anterior cingulate cortex (ACAv) / c-fos-GFP activation, Basal, Central, Cortic. Amydgala (AMG) / c-fos-GFP activation, Bed nucleus of Stria Terminalis (BST) / c-fos-GFP activation, Caudate-putamen (CP, dorso-medial) / c-fos-GFP activation, Caudate-putamen (CP, ventro-medial) / c-fos-GFP activation, Caudoputamen (CP, dorsolateral) / c-fos-GFP activation, Caudoputamen (CP, ventrolateral) / c-fos-GFP activation, Central medial thalamic nucleus / c-fos-GFP activation, Claustrum (CLA) / c-fos-GFP activation, Dorsomedial hypoth. (HYP) / c-fos-GFP activation, Gostatory Cx (GU) / c-fos-GFP activation, Hippocampus: CA1, CA2, CA3 (HF) / c-fos-GFP activation, Hippocampus: DG / c-fos-GFP activation, Hypothalamus, ventromedial nuclei / c-fos-GFP activation, Infralimbic cortex (IL) / c-fos-GFP activation, Insular area, agranular / c-fos-GFP activation, Lateral Septum (LS) / c-fos-GFP activation, Lateral Spetal Nucl, dorsal part / c-fos-GFP activation, Midline Thalamus (Nucl Reuniens, RE) / c-fos-GFP activation, Midline Thalamus (PVT) / c-fos-GFP activation, Motor area, primary (MOp) / c-fos-GFP activation, Motor area, secondary (MOs) / c-fos-GFP activation, Nucleus Accumbens (ACB), core / c-fos-GFP activation, Nucleus Accumbens (ACB), shell / c-fos-GFP activation, Nucleus Accumbens (ACB), whole / c-fos-GFP activation, Olfactory tubercle (OT) / c-fos-GFP activation, Orbital cortex ventral (VO) / c-fos-GFP activation, Orbital cx (ORB), lateral / c-fos-GFP activation, Orbital cx (ORB), medial / c-fos-GFP activation, Piriform cx (PIR) / c-fos-GFP activation, Prelimbic cx (PL) / c-fos-GFP activation, RSPd, v, d and agl / c-fos-GFP activation, Red nucleus (RN) / c-fos-GFP activation, Somatosensory cx, primary / c-fos-GFP activation, Striatum, ventro-lateral / c-fos-GFP activation, Superior Colliculus (SC) / c-fos-GFP activation, Temporal cortex / c-fos-GFP activation, Ventromedial Thalamus (caudally) / c-fos-GFP activation, Zona Inserta: haloperidol 0.25, risperidone 1.0, aripiprazole 1.0 mg/kg, vs saline-injected control

Cc1nc2n(c(=O)c1CCN1CCC(c3noc4cc(F)ccc34)CC1)CCCC2 [risperidone]
brain regions activated (pharmacomap): activated the prelimbic (PL), orbital (ORB), piriform (PIR) and gustatory (GU) cortices, the dorsal and ventral CP, ACB, claustrum (CLA), and superior colliculus (SC)
c-fos-GFP activation, Anterior cingulate cortex (ACAd): 0
c-fos-GFP activation, Anterior cingulate cortex (ACAv): 0
c-fos-GFP activation, Basal, Central, Cortic. Amydgala (AMG): 0
c-fos-GFP activation, Bed nucleus of Stria Terminalis (BST): 0
c-fos-GFP activation, Caudate-putamen (CP, dorso-medial): 0
c-fos-GFP activation, Caudate-putamen (CP, ventro-medial): 0
c-fos-GFP activation, Caudoputamen (CP, dorsolateral): up
c-fos-GFP activation, Caudoputamen (CP, ventrolateral): up
c-fos-GFP activation, Central medial thalamic nucleus: 0
c-fos-GFP activation, Claustrum (CLA): up
c-fos-GFP activation, Dorsomedial hypoth. (HYP): 0
c-fos-GFP activation, Gostatory Cx (GU): up
c-fos-GFP activation, Hippocampus: CA1, CA2, CA3 (HF): 0
c-fos-GFP activation, Hippocampus: DG: 0
c-fos-GFP activation, Hypothalamus, ventromedial nuclei: down
c-fos-GFP activation, Infralimbic cortex (IL): 0
c-fos-GFP activation, Insular area, agranular: 0
c-fos-GFP activation, Lateral Septum (LS): 0
c-fos-GFP activation, Lateral Spetal Nucl, dorsal part: 0
c-fos-GFP activation, Midline Thalamus (Nucl Reuniens, RE): 0
c-fos-GFP activation, Midline Thalamus (PVT): 0
c-fos-GFP activation, Motor area, primary (MOp): 0
c-fos-GFP activation, Motor area, secondary (MOs): 0
c-fos-GFP activation, Nucleus Accumbens (ACB), core: up
c-fos-GFP activation, Nucleus Accumbens (ACB), shell: 0
c-fos-GFP activation, Nucleus Accumbens (ACB), whole: 0
c-fos-GFP activation, Olfactory tubercle (OT): 0
c-fos-GFP activation, Orbital cortex ventral (VO): up
c-fos-GFP activation, Orbital cx (ORB), lateral: up
c-fos-GFP activation, Orbital cx (ORB), medial: up
c-fos-GFP activation, Piriform cx (PIR): up
c-fos-GFP activation, Prelimbic cx (PL): down
c-fos-GFP activation, RSPd, v, d and agl: 0
c-fos-GFP activation, Red nucleus (RN): 0
c-fos-GFP activation, Somatosensory cx, primary: 0
c-fos-GFP activation, Striatum, ventro-lateral: 0
c-fos-GFP activation, Superior Colliculus (SC): 0
c-fos-GFP activation, Temporal cortex: 0
c-fos-GFP activation, Ventromedial Thalamus (caudally): 0
c-fos-GFP activation, Zona Inserta: 0

O=C1CCc2ccc(OCCCCN3CCN(c4cccc(Cl)c4Cl)CC3)cc2N1 [aripiprazole]
brain regions activated (pharmacomap): activated a partially overlapping pattern, with more cortical areas, including prominent activation of auditory association and entorhinal areas; also recorded: Parts of the amygdala (AMG), hippocampal formation (HF), and midline thalamus (PVT and RE) also showed activation
c-fos-GFP activation, Anterior cingulate cortex (ACAd): up
c-fos-GFP activation, Anterior cingulate cortex (ACAv): up
c-fos-GFP activation, Basal, Central, Cortic. Amydgala (AMG): up
c-fos-GFP activation, Bed nucleus of Stria Terminalis (BST): 0
c-fos-GFP activation, Caudate-putamen (CP, dorso-medial): 0
c-fos-GFP activation, Caudate-putamen (CP, ventro-medial): 0
c-fos-GFP activation, Caudoputamen (CP, dorsolateral): up
c-fos-GFP activation, Caudoputamen (CP, ventrolateral): 0
c-fos-GFP activation, Central medial thalamic nucleus: up
c-fos-GFP activation, Claustrum (CLA): up
c-fos-GFP activation, Dorsomedial hypoth. (HYP): 0
c-fos-GFP activation, Gostatory Cx (GU): up
c-fos-GFP activation, Hippocampus: CA1, CA2, CA3 (HF): up
c-fos-GFP activation, Hippocampus: DG: down
c-fos-GFP activation, Hypothalamus, ventromedial nuclei: 0
c-fos-GFP activation, Infralimbic cortex (IL): up
c-fos-GFP activation, Insular area, agranular: up
c-fos-GFP activation, Lateral Septum (LS): 0
c-fos-GFP activation, Lateral Spetal Nucl, dorsal part: up
c-fos-GFP activation, Midline Thalamus (Nucl Reuniens, RE): up
c-fos-GFP activation, Midline Thalamus (PVT): up
c-fos-GFP activation, Motor area, primary (MOp): up
c-fos-GFP activation, Motor area, secondary (MOs): up
c-fos-GFP activation, Nucleus Accumbens (ACB), core: up
c-fos-GFP activation, Nucleus Accumbens (ACB), shell: up
c-fos-GFP activation, Nucleus Accumbens (ACB), whole: 0
c-fos-GFP activation, Olfactory tubercle (OT): up
c-fos-GFP activation, Orbital cortex ventral (VO): 0
c-fos-GFP activation, Orbital cx (ORB), lateral: up
c-fos-GFP activation, Orbital cx (ORB), medial: up
c-fos-GFP activation, Piriform cx (PIR): 0
c-fos-GFP activation, Prelimbic cx (PL): up
c-fos-GFP activation, RSPd, v, d and agl: up
c-fos-GFP activation, Red nucleus (RN): down
c-fos-GFP activation, Somatosensory cx, primary: up
c-fos-GFP activation, Striatum, ventro-lateral: up
c-fos-GFP activation, Superior Colliculus (SC): up
c-fos-GFP activation, Temporal cortex: up
c-fos-GFP activation, Ventromedial Thalamus (caudally): up
c-fos-GFP activation, Zona Inserta: up
